Tests used:
[1] = tested on: wild type mice; experiment: Regional cerebral blood flow (rCBF) by laser-Doppler flowimetry after L-arginine infusion, wild type and simvastatin-treated mice; type: in vivo
Description: (§1) The number of mice in each group is indicated in parenthesis.

[2] = tested on: mutant mice deficient in endothelial nitric oxide synthase (eNOS null); experiment: Regional cerebral blood flow (rCBF) by laser-Doppler flowimetry after L-arginine infusion, eNOS null mice; type: in vivo; settings: L-arginine 450 mg/kg i.v.
Description: as §1

[3] = Uptake of tritium labeled Dizocilpine in MCA territory after MCA occlusion (Example 6, autoradiography); type: in vivo, mice; settings: L-arginine 400 mg/kg infusion over 10 min acutely or Simvastatin SC 3 weeks, Example 6 written in present tense
Protocol: 4 groups of mice receive the following treatments by SQ administration for 3 weeks, followed on day 22 by a surgery where an MCA occlusion is induced by an insertion of a modified 8-0 suture. […] Thereafter the mice are sacrificed at 15 and 30 minutes, and the brain tissue is frozen and sectioned and then analyzed by autoradiographic methods to quantitate the amount of radiolabeled compound present within the MCA territory on the side of occlusion.
1) 2 groups of saline SC injection over 3 weeks
a) 1 group after surgery received radio labeled Dizocilpine
2) 2 groups of Simvastain SC injection over 3 weeks

[4] = mouse, in vivo
[5] = L-arginine infusion in simvastatin-treated mice
[6] = wild type mice, L-arginine 450 mg/kg i.v.

SMILES | elevations in regional cerebral blood flow (RCBF) ([1]; L-arginine 300 mg/kg i.v., preliminary experiments n=4, modest and variable) [%] | additional time for which rCBF increases sustained [1, 5] [min] | time of maximum rCBF increase [1, 5] [min] | maximum rCBF increase over simvastatin baseline ([1]; L-arginine infusion in simvastatin-treated mice, at 15-20 min) | increase in blood flow in the 30-40 minute epoch, simvastatin treated compared to non treated control ([1]; L-arginine infusion, P<0.05) | time at which increase in RCBF began [1, 6] [min] | time of maximum rCBF values [1, 6] [min] | time at which RCBF increase achieved statistical significance ([1]; wild type mice, L-arginine 450 mg/kg i.v., after infusion) [min] | maximum rCBF increase above baseline ([1]; wild type mice, L-arginine 450 mg/kg i.v., parietal cortex, at 20-25 min) [%] | rCBF change during the 40 minute recording period [2] | rCBF response (in words) [2] | uptake of Dizocilpine within the underperfused brain [3] | blood pH after infusion (in words) [4] | increase of baseline rCBF ([1]; after chronic daily administration of simvastatin alone) [%]
N=C(N)NCCC[C@H](N)C(=O)O [L-arginine] | 10 | 20 | 15 to 20 | 29-31% | larger | 5 to 10 | 20 to 25 | 10 to 15 | 26 | −4 to +5% | did not increase rCBF | higher uptake | lower | 
CCC(C)(C)C(=O)O[C@H]1C[C@@H](C)C=C2C=C[C@H](C)[C@H](CC[C@@H]3C[C@@H](O)CC(=O)O3)[C@H]21 [simvastatin] |  |  |  |  |  |  |  |  |  |  |  |  |  | 25

Reference: US6818669B2, “Increasing cerebral bioavailability of drugs” (Enos Pharmaceuticals, Inc., priority 1999, dated 2004)
